Measured values: patent US20120270237A9, “METHODS FOR THE IDENTIFICATION OF KINASE INTERACTING MOLECULES AND FOR THE PURIFICATION OF KINASE PROTEINS” (Cellzone AG, priority 2009, published 2012)

Tests used:
Test in all cases: Kinobeads competition binding, HL60 cell lysate
Parameters in all cases: endogenous in cells
Conditions in all cases: 10 μM free compound
PLK4 = PLK4 (Homo sapiens, UniProt O00444)
Protocol: (§1) To one aliquot of cell lysate 10 μM of the free compound (FIG. 3, CZC31326) was added and allowed to bind to proteins in the lysate. Then the affinity matrix with the immobilized compound (Example 1) was added to capture proteins that were not interacting with the previously added free compound. Beads were separated from the lysate and bead bound proteins were eluted in SDS sample buffer and subsequently separated by SDS-Polyacrylamide gel electrophoresis (FIG. 4). Suitable gel bands were cut out and subjected to in-gel proteolytic digestion with trypsin. The second lysate aliquot was processed identically, however no free compound was added (DMSO solvent control). Peptides originating from samples 1 and 2 were labeled with iTRAQ reagents (iTRAQ 114 and iTRAQ 117) and the combined samples were analyzed with a nano-flow liquid chromatography system coupled online to a tandem mass spectrometer (LC-MS/MS) experiment followed by iTRAQ reporter ion quantification in the MS/MS spectra (Ross et al., 2004. Mol. Cell. Proteomics 3(12):1154-1169). Further experimental protocols can be found in WO2006/134056 and a previous publication (Bantscheff et al., 2007. Nature Biotechnology 25, 1035-1044). Sepharose-beads with the immobilized compound (100 μl beads per pull-down experiment) were equilibrated in lysis buffer and incubated with a cell lysate sample containing 50 mg of protein on an end-over-end shaker (Roto Shake Genie, Scientific Industries Inc.) for 2 hours at 4° C. Beads were collected, transferred to Mobicol-columns (MoBiTech 10055) and washed with 10 ml lysis buffer containing 0.4% NP40 detergent, followed by 5 ml lysis buffer containing 0.2% detergent. To elute bound proteins, 60 μl 2×SDS sample buffer was added to the column. The column was incubated for 30 minutes at 50° C. and the eluate was transferred to a siliconized microfuge tube by centrifugation. Proteins were then alkylated with 108 mM iodoacetamid. Proteins were then separated by SDS-Polyacrylamide electrophoresis (SDS-PAGE). The peptide extracts of samples treated with 10 μM of free compound (CZC31326) and the solvent control (0.5% DMSO) were treated with different variants of the isobaric tagging reagent (iTRAQ Reagents Multiplex Kit, part number 4352135, Applied Biosystems, Foster City, Calif., USA). The iTRAQ reagents are a set of multiplexed, amine-specific, stable isotope reagents that can label peptides on amino groups in up to four different biological samples enabling simultaneous identification and quantitation of peptides. The iTRAQ reagents were used according to instructions provided by the manufacturer. The samples were resuspended in 10 μl 50 mM TEAB solution, pH 8.5 and 10 μl ethanol were added. The iTRAQ reagent was dissolved in 120 μl ethanol and 10 μl of reagent solution were added to the sample. The labeling reaction was performed at room temperature for one hour on a horizontal shaker and stopped by adding 5 μl of 100 mM TEAB and 100 mM glycine in water. The two labeled sampled were then combined, dried in a vacuum centrifuge and resuspended in 10 μl of 0.1% formic acid in water. Relative protein quantitation was performed using peak areas of iTRAQ reporter ion signals essentially as described in an earlier publication (Bantscheff et al., 2007. Nature Biotechnology 25, 1035-1044).

AAK1 = AAK1 (Homo sapiens, UniProt Q2M2I8)
Protocol: as §1

MARK3 = MARK3 (Homo sapiens, UniProt P27448)
Protocol: as §1

CaMK2d = CaMK2d (Homo sapiens, UniProt Q13557)
Protocol: as §1

PAK4 = PAK4 (Homo sapiens, UniProt O96013)
Protocol: as §1

CDC2 = CDC2 (Homo sapiens, UniProt P06493)
Protocol: as §1

AurB = AurB (Homo sapiens, UniProt Q96GD4)
Protocol: as §1

PKD3 = biological target: T1, PKD3 (Homo sapiens, UniProt O94806)
T1 sequence (O94806 1-890): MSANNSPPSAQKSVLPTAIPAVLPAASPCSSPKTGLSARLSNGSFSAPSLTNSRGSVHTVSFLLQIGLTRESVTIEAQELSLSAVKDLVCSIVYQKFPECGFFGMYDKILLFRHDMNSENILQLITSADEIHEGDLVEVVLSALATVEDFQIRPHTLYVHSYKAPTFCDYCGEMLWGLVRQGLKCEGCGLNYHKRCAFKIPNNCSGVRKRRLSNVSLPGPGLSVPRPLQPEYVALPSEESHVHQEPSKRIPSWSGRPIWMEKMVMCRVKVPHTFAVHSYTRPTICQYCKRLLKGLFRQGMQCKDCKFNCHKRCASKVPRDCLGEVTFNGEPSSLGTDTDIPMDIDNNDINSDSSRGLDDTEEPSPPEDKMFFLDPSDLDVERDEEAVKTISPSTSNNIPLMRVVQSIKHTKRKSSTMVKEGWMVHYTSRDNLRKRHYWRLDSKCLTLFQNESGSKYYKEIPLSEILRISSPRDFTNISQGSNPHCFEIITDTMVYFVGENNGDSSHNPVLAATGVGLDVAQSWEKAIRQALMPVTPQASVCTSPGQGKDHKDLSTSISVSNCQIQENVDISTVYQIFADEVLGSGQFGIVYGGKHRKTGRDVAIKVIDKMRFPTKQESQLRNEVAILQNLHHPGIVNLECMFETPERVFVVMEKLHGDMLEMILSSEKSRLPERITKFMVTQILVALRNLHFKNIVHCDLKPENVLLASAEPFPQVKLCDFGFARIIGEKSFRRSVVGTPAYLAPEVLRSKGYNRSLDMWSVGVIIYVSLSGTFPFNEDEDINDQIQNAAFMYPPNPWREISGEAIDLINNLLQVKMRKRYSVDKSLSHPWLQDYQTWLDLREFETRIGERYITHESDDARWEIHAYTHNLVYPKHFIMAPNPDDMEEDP
Protocol: as §1

Sequence of MARK3 (P27448 whole entry): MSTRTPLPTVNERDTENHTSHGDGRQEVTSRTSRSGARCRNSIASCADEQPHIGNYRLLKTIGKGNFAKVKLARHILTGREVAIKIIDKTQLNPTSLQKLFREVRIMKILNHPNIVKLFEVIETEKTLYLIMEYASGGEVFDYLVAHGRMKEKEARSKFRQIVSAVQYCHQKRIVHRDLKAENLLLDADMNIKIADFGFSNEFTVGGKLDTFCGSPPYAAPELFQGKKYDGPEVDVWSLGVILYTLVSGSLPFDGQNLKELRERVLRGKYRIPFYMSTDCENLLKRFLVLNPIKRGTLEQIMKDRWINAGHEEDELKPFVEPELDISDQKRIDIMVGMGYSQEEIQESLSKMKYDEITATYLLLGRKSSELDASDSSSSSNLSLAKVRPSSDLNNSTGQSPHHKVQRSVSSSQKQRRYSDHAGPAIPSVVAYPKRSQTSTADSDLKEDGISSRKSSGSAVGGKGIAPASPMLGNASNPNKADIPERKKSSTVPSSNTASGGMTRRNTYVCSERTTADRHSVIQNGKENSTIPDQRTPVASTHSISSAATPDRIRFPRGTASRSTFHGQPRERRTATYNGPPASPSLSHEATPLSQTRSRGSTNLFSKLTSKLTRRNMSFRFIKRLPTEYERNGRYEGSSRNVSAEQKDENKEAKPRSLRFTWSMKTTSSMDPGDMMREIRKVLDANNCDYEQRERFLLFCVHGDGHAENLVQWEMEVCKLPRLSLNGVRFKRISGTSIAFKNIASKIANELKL
Sequence of CaMK2d (Q13557 whole entry): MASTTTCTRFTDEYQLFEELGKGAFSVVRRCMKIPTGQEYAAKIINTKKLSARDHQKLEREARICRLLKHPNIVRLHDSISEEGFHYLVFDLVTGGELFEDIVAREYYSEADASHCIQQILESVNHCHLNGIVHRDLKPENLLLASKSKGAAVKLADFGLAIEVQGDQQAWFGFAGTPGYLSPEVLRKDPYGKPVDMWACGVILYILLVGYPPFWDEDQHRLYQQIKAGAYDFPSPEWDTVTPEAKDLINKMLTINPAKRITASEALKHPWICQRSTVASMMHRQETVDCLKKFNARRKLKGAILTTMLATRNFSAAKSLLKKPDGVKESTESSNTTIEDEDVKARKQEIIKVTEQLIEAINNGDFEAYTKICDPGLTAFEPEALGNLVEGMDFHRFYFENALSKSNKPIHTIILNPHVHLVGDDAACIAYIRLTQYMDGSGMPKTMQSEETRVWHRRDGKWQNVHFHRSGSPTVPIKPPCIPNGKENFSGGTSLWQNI
Sequence of PAK4 (O96013 whole entry): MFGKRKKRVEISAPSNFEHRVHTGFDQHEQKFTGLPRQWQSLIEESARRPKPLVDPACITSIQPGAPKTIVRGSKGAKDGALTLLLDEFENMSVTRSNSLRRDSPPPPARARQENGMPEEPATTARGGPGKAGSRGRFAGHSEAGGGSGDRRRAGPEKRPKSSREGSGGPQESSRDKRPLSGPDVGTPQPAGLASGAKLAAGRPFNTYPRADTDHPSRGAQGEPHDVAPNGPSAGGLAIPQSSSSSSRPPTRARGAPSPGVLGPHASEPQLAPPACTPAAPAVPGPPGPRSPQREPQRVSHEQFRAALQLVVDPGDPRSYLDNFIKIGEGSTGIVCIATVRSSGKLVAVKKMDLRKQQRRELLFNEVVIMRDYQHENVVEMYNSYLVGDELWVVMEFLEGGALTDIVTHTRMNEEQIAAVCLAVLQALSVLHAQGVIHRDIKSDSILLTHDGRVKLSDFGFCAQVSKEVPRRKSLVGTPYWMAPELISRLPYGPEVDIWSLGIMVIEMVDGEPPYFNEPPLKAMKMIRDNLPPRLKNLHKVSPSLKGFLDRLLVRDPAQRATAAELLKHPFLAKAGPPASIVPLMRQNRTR
Sequence of CDC2 (P06493 whole entry): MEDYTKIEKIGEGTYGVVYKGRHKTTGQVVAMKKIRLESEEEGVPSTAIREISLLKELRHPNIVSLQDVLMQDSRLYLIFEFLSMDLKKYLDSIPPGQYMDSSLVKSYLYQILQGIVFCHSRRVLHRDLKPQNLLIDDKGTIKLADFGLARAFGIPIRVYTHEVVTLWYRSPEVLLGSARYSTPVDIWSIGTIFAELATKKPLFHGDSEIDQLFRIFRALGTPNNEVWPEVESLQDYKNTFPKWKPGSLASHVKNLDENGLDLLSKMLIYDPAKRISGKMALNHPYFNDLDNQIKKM
Sequence of AurB (Q96GD4 whole entry): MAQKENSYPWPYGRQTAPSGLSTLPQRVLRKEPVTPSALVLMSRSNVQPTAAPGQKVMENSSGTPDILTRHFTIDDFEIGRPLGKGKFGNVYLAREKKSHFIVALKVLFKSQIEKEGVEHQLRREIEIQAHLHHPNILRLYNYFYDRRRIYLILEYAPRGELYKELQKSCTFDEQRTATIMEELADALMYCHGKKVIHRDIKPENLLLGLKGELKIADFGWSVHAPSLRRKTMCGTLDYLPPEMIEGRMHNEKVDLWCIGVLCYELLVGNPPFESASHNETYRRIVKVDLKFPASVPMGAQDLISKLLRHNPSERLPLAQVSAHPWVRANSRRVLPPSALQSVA
Sequence of AAK1 (Q2M2I8 whole entry): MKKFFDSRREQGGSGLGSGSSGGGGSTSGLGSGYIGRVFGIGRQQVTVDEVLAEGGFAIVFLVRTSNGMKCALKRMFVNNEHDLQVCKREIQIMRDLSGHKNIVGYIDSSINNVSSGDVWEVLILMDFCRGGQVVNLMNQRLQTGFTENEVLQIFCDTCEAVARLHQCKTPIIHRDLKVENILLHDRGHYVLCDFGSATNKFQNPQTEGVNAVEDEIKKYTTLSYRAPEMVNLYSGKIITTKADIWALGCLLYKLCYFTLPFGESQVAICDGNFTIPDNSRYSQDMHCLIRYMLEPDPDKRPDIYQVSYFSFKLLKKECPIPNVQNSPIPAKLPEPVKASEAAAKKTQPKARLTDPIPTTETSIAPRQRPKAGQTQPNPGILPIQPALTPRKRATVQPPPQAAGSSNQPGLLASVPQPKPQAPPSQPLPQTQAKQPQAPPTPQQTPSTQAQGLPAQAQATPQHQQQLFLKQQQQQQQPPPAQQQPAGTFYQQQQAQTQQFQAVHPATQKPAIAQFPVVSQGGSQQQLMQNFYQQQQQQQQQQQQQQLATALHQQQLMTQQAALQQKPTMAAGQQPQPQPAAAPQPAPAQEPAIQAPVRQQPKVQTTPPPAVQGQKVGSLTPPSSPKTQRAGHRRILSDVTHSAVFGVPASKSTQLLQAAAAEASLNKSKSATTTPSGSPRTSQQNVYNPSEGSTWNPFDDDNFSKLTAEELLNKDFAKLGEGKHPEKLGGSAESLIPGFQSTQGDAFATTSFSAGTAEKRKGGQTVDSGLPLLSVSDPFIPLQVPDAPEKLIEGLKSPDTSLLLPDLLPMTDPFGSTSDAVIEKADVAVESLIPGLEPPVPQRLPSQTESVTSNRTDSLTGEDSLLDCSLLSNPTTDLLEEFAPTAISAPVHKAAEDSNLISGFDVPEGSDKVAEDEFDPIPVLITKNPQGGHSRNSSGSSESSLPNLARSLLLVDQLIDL
Sequence of PLK4 (O00444 whole entry): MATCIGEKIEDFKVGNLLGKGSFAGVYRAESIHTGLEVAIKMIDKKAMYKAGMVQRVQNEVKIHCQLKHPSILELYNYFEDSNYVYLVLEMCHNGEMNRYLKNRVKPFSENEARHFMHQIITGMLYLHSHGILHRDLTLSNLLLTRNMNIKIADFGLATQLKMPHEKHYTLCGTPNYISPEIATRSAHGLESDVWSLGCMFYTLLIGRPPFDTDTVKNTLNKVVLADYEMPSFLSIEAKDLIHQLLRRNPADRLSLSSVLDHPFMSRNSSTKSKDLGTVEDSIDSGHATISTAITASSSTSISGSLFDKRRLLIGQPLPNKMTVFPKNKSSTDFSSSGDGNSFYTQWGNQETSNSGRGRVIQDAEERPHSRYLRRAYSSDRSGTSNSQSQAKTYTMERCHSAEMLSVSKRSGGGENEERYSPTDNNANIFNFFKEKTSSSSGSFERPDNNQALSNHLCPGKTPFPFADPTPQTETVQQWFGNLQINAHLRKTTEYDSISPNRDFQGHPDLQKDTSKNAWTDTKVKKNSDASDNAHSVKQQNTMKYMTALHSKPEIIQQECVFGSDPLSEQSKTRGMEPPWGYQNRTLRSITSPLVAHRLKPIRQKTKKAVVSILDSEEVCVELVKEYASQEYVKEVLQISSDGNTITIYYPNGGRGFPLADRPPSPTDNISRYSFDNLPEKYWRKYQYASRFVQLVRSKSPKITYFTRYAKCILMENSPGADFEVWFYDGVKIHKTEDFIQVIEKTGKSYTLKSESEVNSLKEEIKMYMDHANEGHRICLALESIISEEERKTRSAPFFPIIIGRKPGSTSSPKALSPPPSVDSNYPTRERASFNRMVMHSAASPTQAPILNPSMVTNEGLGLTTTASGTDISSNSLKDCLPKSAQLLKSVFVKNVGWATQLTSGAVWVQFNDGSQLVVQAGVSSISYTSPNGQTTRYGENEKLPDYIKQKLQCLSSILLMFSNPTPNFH

CS(=O)(=O)Nc1ccccc1Nc1nc(Nc2cccc(OCCN)c2)ncc1Cl [CZC31326, N-(2-(2-(3-(2-aminoethoxy)phenylamino)-5-chloropyrimidin-4-ylamino)phenyl)methanesulfonamide]
inhibition at 10 µM (PLK4): 91.7%
inhibition at 10 µM (AAK1): 97.8%
inhibition at 10 µM (MARK3): 97.2%
inhibition at 10 µM (CaMK2d): 90.4%
inhibition at 10 µM (PAK4): 97.5%
inhibition at 10 µM (CDC2): 93.1%
inhibition at 10 µM (AurB): 95%
inhibition at 10 µM (PKD3): 96.9%
